Converted amounts (≈) assume the structure as drawn.
Legend:
Staphylococcus aureus [1] = assay: Antibacterial activity against Staphylococcus aureus ATCC 29213 assessed as inhibition of bacterial growth incubated for 24 hrs by CLSI based broth dilution method; format: functional
Staphylococcus aureus [2] = assay: Antibacterial activity against methicillin-resistant Staphylococcus aureus N315 assessed as inhibition of bacterial growth incubated for 24 hrs by CLSI based broth dilution method; format: functional
Staphylococcus aureus [3] = assay: Antibacterial activity against methicillin-resistant Staphylococcus aureus NCTC10442 assessed as inhibition of bacterial growth incubated for 24 hrs by CLSI based broth dilution method; format: functional
Escherichia coli [4] = assay: Antibacterial activity against Escherichia coli ATCC 25922 assessed as inhibition of bacterial growth incubated for 24 hrs by CLSI based broth dilution method; format: functional
[5] = Hemolytic activity in rabbit RBC measured after 1 hrs by multimode reader assay; format: toxicity, cell-based, Oryctolagus cuniculus, Erythrocyte; conditions: rabbit red blood cells (erythrocytes)
[6] = Dissociation constant, pKa of compound by potentiometric titration method; format: physicochemical
Escherichia coli [7] = assay: Antibacterial activity against Escherichia coli ATCC 25922 assessed as fold increase in MIC incubated for 24 hrs in presence of 2.5 mM Ca2+ by CLSI based broth dilution method; format: functional
Acinetobacter baumannii [8] = assay: Antibacterial activity against Acinetobacter baumannii ATCC 17978 assessed as fold increase in MIC incubated for 24 hrs in presence of 140 mM Na+ by CLSI based broth dilution method; format: functional
Escherichia coli [9] = assay: Antibacterial activity against Escherichia coli ATCC 25922 assessed as fold increase in MIC incubated for 24 hrs in presence of 4.5 mM K+ by CLSI based broth dilution method; format: functional
Staphylococcus aureus [10] = assay: Antibacterial activity against Staphylococcus aureus NCTC10442 assessed as fold increase in MIC incubated for 24 hrs in presence of 1 mM Mg2+ by CLSI based broth dilution method; format: functional
Staphylococcus aureus [11] = assay: Antibacterial activity against Staphylococcus aureus ATCC 29213 assessed as fold increase in MIC incubated for 24 hrs in presence of 4.5 mM K+ by CLSI based broth dilution method; format: functional
Escherichia coli [12] = assay: Antibacterial activity against Escherichia coli ATCC 25922 assessed as fold increase in MIC incubated for 24 hrs in presence of 140 mM Na+ by CLSI based broth dilution method; format: functional
Staphylococcus aureus [13] = assay: Antibacterial activity against Staphylococcus aureus NCTC10442 assessed as fold increase in MIC incubated for 24 hrs in presence of 4.5 mM K+ by CLSI based broth dilution method; format: functional
Staphylococcus aureus [14] = assay: Antibacterial activity against Staphylococcus aureus NCTC10442 assessed as fold increase in MIC incubated for 24 hrs in presence of 140 mM Na+ by CLSI based broth dilution method; format: functional
Acinetobacter baumannii [15] = assay: Antibacterial activity against Acinetobacter baumannii ATCC 17978 assessed as fold increase in MIC incubated for 24 hrs in presence of 4.5 mM K+ by CLSI based broth dilution method; format: functional
Staphylococcus aureus [16] = assay: Antibacterial activity against Staphylococcus aureus NCTC10442 assessed as fold increase in MIC incubated for 24 hrs in presence of 2.5 mM Ca2+ by CLSI based broth dilution method; format: functional
Acinetobacter baumannii [17] = assay: Antibacterial activity against Acinetobacter baumannii ATCC 17978 assessed as fold increase in MIC incubated for 24 hrs in presence of 1 mM Mg2+ by CLSI based broth dilution method; format: functional
Acinetobacter baumannii [18] = assay: Antibacterial activity against Acinetobacter baumannii ATCC 17978 assessed as fold increase in MIC incubated for 24 hrs in presence of 2.5 mM Ca2+ by CLSI based broth dilution method; format: functional
Escherichia coli [19] = assay: Antibacterial activity against Escherichia coli ATCC 25922 assessed as fold increase in MIC incubated for 24 hrs in presence of 1 mM Mg2+ by CLSI based broth dilution method; format: functional
Staphylococcus aureus [20] = assay: Antibacterial activity against Staphylococcus aureus ATCC 29213 assessed as fold increase in MIC incubated for 24 hrs in presence of 140 mM Na+ by CLSI based broth dilution method; format: functional
Staphylococcus aureus [21] = assay: Antibacterial activity against Staphylococcus aureus ATCC 29213 assessed as fold increase in MIC incubated for 24 hrs in presence of 2.5 mM Ca2+ by CLSI based broth dilution method; format: functional
Staphylococcus aureus [22] = assay: Antibacterial activity against Staphylococcus aureus ATCC 29213 assessed as fold increase in MIC incubated for 24 hrs in presence of 1 mM Mg2+ by CLSI based broth dilution method; format: functional
Acinetobacter baumannii [23] = assay: Antibacterial activity against Acinetobacter baumannii R2889 assessed as inhibition of bacterial growth incubated for 24 hrs by CLSI based broth dilution method; format: functional
Klebsiella pneumoniae [24] = assay: Antibacterial activity against Klebsiella pneumoniae ATCC 14581 assessed as inhibition of bacterial growth incubated for 24 hrs by CLSI based broth dilution method; format: functional
Acinetobacter baumannii [25] = assay: Antibacterial activity against Acinetobacter baumannii ATCC 17978 assessed as inhibition of bacterial growth incubated for 24 hrs by CLSI based broth dilution method; format: functional
Klebsiella pneumoniae [26] = assay: Antibacterial activity against Klebsiella pneumoniae ATCC 10031 assessed as inhibition of bacterial growth incubated for 24 hrs by CLSI based broth dilution method; format: functional
Pseudomonas aeruginosa = assay: Antibacterial activity against Pseudomonas aeruginosa ATCC 9027 assessed as inhibition of bacterial growth incubated for 24 hrs by CLSI based broth dilution method; format: functional

Compound | MIC (Staphylococcus aureus [1]) [µg/mL] | MIC (Staphylococcus aureus [2]) [µg/mL] | MIC (Staphylococcus aureus [3]) [µg/mL] | MIC (Escherichia coli [4]) [µg/mL] | HC50 at 1 h [5] [µg/mL] | other results
C=C[C@@](C)(/C=C/c1ccc(OCCCCN(Cc2ccccn2)Cc2ccccn2)cc1)CCC=C(C)C | 3.12 (≈ 6.13 µM) | 1.56 (≈ 3.06 µM) | 1.56 (≈ 3.06 µM) | > 100 | > 200 | –
C=C[C@@](C)(/C=C/c1ccc(OCCCC[N+](C)(CCCC)CCCC)cc1)CCC=C(C)C.[I-] | 1.56 | 0.78 | 0.39 | 12.5 | 40.6 | –
C=C[C@@](C)(/C=C/c1ccc(OCCCCN2CCSCC2)cc1)CCC=C(C)C | > 50 | > 50 | > 50 | > 100 | > 200 | pKa [6]: 8.41
C=C[C@@](C)(/C=C/c1ccc(OCCCCN2CCNCCNCCNCCNCC2)cc1)CCC=C(C)C | 1.56 (≈ 2.97 µM) | 0.78 (≈ 1.48 µM) | 1.56 (≈ 2.97 µM) | 6.25 (≈ 11.9 µM) | 75.2 | fold change (FC) (Escherichia coli [7]): <2; fold change (FC) (Acinetobacter baumannii [8]): <2; fold change (FC) (Escherichia coli [9]): <2; fold change (FC) (Staphylococcus aureus [10]): <2; fold change (FC) (Staphylococcus aureus [11]): <2; fold change (FC) (Escherichia coli [12]): <2; fold change (FC) (Staphylococcus aureus [13]): <2; fold change (FC) (Staphylococcus aureus [14]): <2; fold change (FC) (Acinetobacter baumannii [15]): <2; fold change (FC) (Staphylococcus aureus [16]): <2; fold change (FC) (Acinetobacter baumannii [17]): <2; fold change (FC) (Acinetobacter baumannii [18]): <2; fold change (FC) (Escherichia coli [19]): <2; fold change (FC) (Staphylococcus aureus [20]): <2; fold change (FC) (Staphylococcus aureus [21]): <2; fold change (FC) (Staphylococcus aureus [22]): <2
C=C[C@@](C)(/C=C/c1ccc(OCCCCN)cc1)CCC=C(C)C | 1.56 (≈ 4.76 µM) | 0.78 (≈ 2.38 µM) | 1.56 (≈ 4.76 µM) | 12.5 (≈ 38.2 µM) | 65.9 | pKa [6]: 9.54
C=C[C@@](C)(/C=C/c1ccc(OCCCCN(C)C)cc1)CCC=C(C)C | 1.56 (≈ 4.39 µM) | 1.56 (≈ 4.39 µM) | 3.12 (≈ 8.79 µM) | 50 (≈ 141 µM) | 41.7 | –
CC[C@H](C)[C@H](NC(=O)CN)C(=O)NCC(=O)N[C@@H](C)C(=O)N[C@H](C(=O)N[C@@H](CC(C)C)C(=O)N[C@@H](CCCCN)C(=O)N[C@H](C(=O)N[C@@H](CC(C)C)C(=O)N[C@H](C(=O)N[C@H](C(=O)NCC(=O)N[C@@H](CC(C)C)C(=O)N1CCC[C@H]1C(=O)N[C@@H](C)C(=O)N[C@@H](CC(C)C)C(=O)N[C@H](C(=O)N[C@@H](CO)C(=O)N[C@@H](Cc1c[nH]c2ccccc12)C(=O)N[C@H](C(=O)N[C@@H](CCCCN)C(=O)N[C@@H](CCCNC(=N)N)C(=O)N[C@@H](CCCCN)C(=O)N[C@@H](CCCNC(=N)N)C(=O)N[C@@H](CCC(N)=O)C(=O)N[C@@H](CCC(N)=O)C(N)=O)[C@@H](C)CC)[C@@H](C)CC)[C@@H](C)O)[C@@H](C)O)C(C)C)C(C)C [MELITTIN] | – | – | – | – | – | MIC (Acinetobacter baumannii [23]): 3.12 µg/mL (≈ 1.1 µM); MIC (Klebsiella pneumoniae [24]): 6.25 µg/mL (≈ 2.2 µM); MIC (Acinetobacter baumannii [25]): 3.12 µg/mL (≈ 1.1 µM); MIC (Klebsiella pneumoniae [26]): 6.25 µg/mL (≈ 2.2 µM)
C=C[C@@](C)(/C=C/c1ccc(OCCCCNCCCC)cc1)CCC=C(C)C | 1.56 (≈ 4.07 µM) | 1.56 (≈ 4.07 µM) | 1.56 (≈ 4.07 µM) | 12.5 (≈ 32.6 µM) | 32.4 | –
C=C[C@@](C)(/C=C/c1ccc(OCCCCN(C)CCCN(C)C)cc1)CCC=C(C)C | 1.56 (≈ 3.66 µM) | 1.56 (≈ 3.66 µM) | 3.12 (≈ 7.32 µM) | 3.12 (≈ 7.32 µM) | 32.5 | MIC (Acinetobacter baumannii [23]): 1.56 µg/mL (≈ 3.66 µM); MIC (Pseudomonas aeruginosa): 12.5 µg/mL (≈ 29.3 µM); MIC (Klebsiella pneumoniae [24]): 1.56 µg/mL (≈ 3.66 µM); MIC (Acinetobacter baumannii [25]): 1.56 µg/mL (≈ 3.66 µM); MIC (Klebsiella pneumoniae [26]): 1.56 µg/mL (≈ 3.66 µM)
